How the values were obtained:
Settings in all cases: incubation time: 72 h
HCC1937 [1] = experiment: normalised viability (% of control), CellTiter-Blue; higher = more viable cells (about 100 = DMSO control)
Procedure, shortened: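 Normalised viability is given for a single listed concentration of the series. In 384-well plates, breast cancer cell lines were incubated 72 h with compound, then read with CellTiter-Blue (2 h, 37 °C) at 560/590 nm. Per-plate scaling set vehicle to 100 and a positive kill control to 0, with Z'-factor quality control.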

CAL-85-1 [2] = experiment: normalised viability (% of control), CellTiter-Blue; higher = more viable cells (about 100 = DMSO control)
Protocol: (§1)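 DSRT, CellTiter-Blue viability, 72 h incubation. Signal is normalised to DMSO and benzethonium chloride controls. Value is the normalised response at dose 7.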

HDQ-P1 [3] = experiment: as above
Protocol: as §1

DU-4475 [4] = experiment: as above
Protocol: as §1

CAL-148 [5] = experiment: as above
Protocol: as §1

MDA-MB-453 [6] = experiment: as above
Protocol: as §1

CAL-51 [7] = experiment: as above
Protocol: as §1

CAL-85-1 [8] = experiment: drug sensitivity score (DSS), CellTiter-Glo (DSS (AUC-based score)); higher = stronger drug effect (viability inhibition or cytotoxicity); extreme values may be limits of the assay
Procedure, shortened: (§2)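 In 384-well plates, compound was laid out at 5 concentrations in 10-fold steps over a 10,000-fold range specific to each compound, and breast cancer cell lines were seeded on top in 20 µl suspension for a 72 h incubation. CellTox Green fluorescence and then CellTiter-Glo luminescence were read, and each plate was normalised to 0.1 % DMSO and a positive kill control. The drug sensitivity score was calculated from the area under the fitted dose-response curve.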

CAL-120 = experiment: as above
Procedure, shortened: as §2

HCC1937 [9] = experiment: as above
Procedure, shortened: as §2

MDA-MB-468 = experiment: as above
Procedure, shortened: as §2

MCF-10A = experiment: as above
Procedure, shortened: as §2

HDQ-P1 [10] = experiment: as above
Procedure, shortened: as §2

DU-4475 [11] = experiment: as above
Procedure, shortened: as §2

Hs578T = experiment: as above
Procedure, shortened: as §2

SK-BR-3 = experiment: as above
Procedure, shortened: as §2

CAL-148 [12] = experiment: as above
Procedure, shortened: as §2

MDA-MB-436 = experiment: as above
Procedure, shortened: as §2

HCC1599 = experiment: as above
Procedure, shortened: as §2

MDA-MB-453 [13] = experiment: as above
Procedure, shortened: as §2

HCC1143 = experiment: as above
Procedure, shortened: as §2

BT-549 = experiment: as above
Procedure, shortened: as §2

CAL-51 [14] = experiment: as above
Procedure, shortened: as §2

MDA-MB-231 = experiment: as above
Procedure, shortened: as §2

BT-474 = experiment: as above
Procedure, shortened: as §2

MFM-223 = experiment: as above
Procedure, shortened: as §2

Row | SMILES | normalised viability (HCC1937 [1]; 1 nM) | normalised viability (HCC1937 [1]; 100 nM) | normalised viability (HCC1937 [1]; 1000 nM) | normalised viability (CAL-85-1 [2]; 100 nM) | normalised viability (HDQ-P1 [3]; 100 nM) | normalised viability (DU-4475 [4]; 100 nM) | normalised viability (CAL-148 [5]; 100 nM) | normalised viability (MDA-MB-453 [6]; 100 nM) | normalised viability (CAL-51 [7]; 100 nM) | drug sensitivity score (CAL-85-1 [8]) | drug sensitivity score (CAL-120) | drug sensitivity score (HCC1937 [9]) | drug sensitivity score (MDA-MB-468) | drug sensitivity score (MCF-10A) | drug sensitivity score (HDQ-P1 [10]) | drug sensitivity score (DU-4475 [11]) | drug sensitivity score (Hs578T) | drug sensitivity score (SK-BR-3) | drug sensitivity score (CAL-148 [12]) | drug sensitivity score (MDA-MB-436) | further results
1 | C=CC(=O)N1CCC[C@@H](n2nc(-c3ccc(Oc4ccccc4)cc3)c3c(N)ncnc32)C1 | 94.8% | 101% | 89.7% | 77.3% | 111% | 92.4% | 98% | 39.5% | 91.9% | – | – | – | – | – | – | – | – | – | – | – | –
2 | CC(=O)Nc1cccc(-n2c(=O)n(C3CC3)c(=O)c3c(Nc4ccc(I)cc4F)n(C)c(=O)c(C)c32)c1 | – | – | – | – | – | – | – | – | – | – | – | – | – | – | – | – | – | – | – | – | normalised viability (HCC1937 [1]; 0.25 nM): 132%; normalised viability (HCC1937 [1]; 25 nM): 112%; normalised viability (HCC1937 [1]; 250 nM): 89.2%; normalised viability (CAL-85-1 [2]; 25 nM): 60.4%; normalised viability (HDQ-P1 [3]; 25 nM): 63.6%; normalised viability (DU-4475 [4]; 25 nM): -0.2%; normalised viability (CAL-148 [5]; 25 nM): 91.2%; normalised viability (MDA-MB-453 [6]; 25 nM): 71.8%; normalised viability (CAL-51 [7]; 25 nM): 69%
3 | CCc1cncnc1N1CCN(Cc2nc3ccc(C(F)(F)F)cc3[nH]2)CC1 | – | – | 107% | – | – | – | – | – | – | 0 | 0.0627 | 0 | 2.68 | 0 | 0 | 0 | 0 | 0 | 0 | 0 | drug sensitivity score (HCC1599): 0; drug sensitivity score (MDA-MB-453 [13]): 1.08; drug sensitivity score (HCC1143): 0; drug sensitivity score (BT-549): 1.94; drug sensitivity score (CAL-51 [14]): 7.14; drug sensitivity score (MDA-MB-231): 0; drug sensitivity score (BT-474): 0.467; drug sensitivity score (MFM-223): 0; normalised viability (HCC1937 [1]; 10 nM): 108%; normalised viability (HCC1937 [1]; 10000 nM): 86.8%; normalised viability (CAL-85-1 [2]; 1000 nM): 101%; normalised viability (HDQ-P1 [3]; 1000 nM): 95.9%; normalised viability (DU-4475 [4]; 1000 nM): 101%; normalised viability (CAL-148 [5]; 1000 nM): 124%; normalised viability (MDA-MB-453 [6]; 1000 nM): 96.5%; normalised viability (CAL-51 [7]; 1000 nM): 87%
4 | Cc1cnc(NC(=O)Nc2cc(Br)c(C)cc2OC[C@@H]2CNCCO2)cn1 | 108% | 80.7% | 50.6% | 85.9% | 110% | 109% | 101% | 88.7% | 91.2% | – | – | – | – | – | – | – | – | – | – | – | –
5 | NCCCNCCSP(=O)(O)O [Amifostine] | – | – | 95% | – | – | – | – | – | – | – | – | – | – | – | – | – | – | – | – | – | normalised viability (HCC1937 [1]; 10 nM): 79.2%; normalised viability (HCC1937 [1]; 10000 nM): 89.5%; normalised viability (CAL-85-1 [2]; 1000 nM): 81.2%; normalised viability (HDQ-P1 [3]; 1000 nM): 89.8%; normalised viability (DU-4475 [4]; 1000 nM): 82.7%; normalised viability (CAL-148 [5]; 1000 nM): 90.6%; normalised viability (MDA-MB-453 [6]; 1000 nM): 92.9%; normalised viability (CAL-51 [7]; 1000 nM): 109%
6 | CC[C@@H]1C(=O)N(C)c2cnc(Nc3ccc(C(=O)NC4CCN(C)CC4)cc3OC)nc2N1C1CCCC1 [BI 2536] | 107% | 24% | 28.3% | 59.4% | 57.7% | 22.3% | 28.3% | 29.9% | 12.1% | 14.1 | 11.2 | 0 | 19.5 | 9.18 | 4.76 | 7.02 | 13.3 | 25.7 | 5.51 | 14 | drug sensitivity score (HCC1599): 12.4; drug sensitivity score (MDA-MB-453 [13]): 11.5; drug sensitivity score (HCC1143): 15.7; drug sensitivity score (BT-549): 21.3; drug sensitivity score (CAL-51 [14]): 17.7; drug sensitivity score (MDA-MB-231): 13.3; drug sensitivity score (BT-474): 8.94; drug sensitivity score (MFM-223): 16.7
7 | CC[C@H](Nc1ncnc2[nH]cnc12)c1nc2cccc(F)c2c(=O)n1-c1ccccc1 [CAL-101] | – | – | 94.5% | – | – | – | – | – | – | – | – | – | – | – | – | – | – | – | – | – | normalised viability (HCC1937 [1]; 10 nM): 106%; normalised viability (HCC1937 [1]; 10000 nM): 92.4%; normalised viability (CAL-85-1 [2]; 1000 nM): 80.5%; normalised viability (HDQ-P1 [3]; 1000 nM): 82.4%; normalised viability (DU-4475 [4]; 1000 nM): 87.8%; normalised viability (CAL-148 [5]; 1000 nM): 79.9%; normalised viability (MDA-MB-453 [6]; 1000 nM): 87.7%; normalised viability (CAL-51 [7]; 1000 nM): 81.9%
8 | O=C(O)CCCCC(CCSCc1ccccc1)SCc1ccccc1 (stereo not drawn) [CPI-613] | – | – | – | – | – | – | – | – | – | 0 | 0 | 0 | 0 | 0 | 0 | 0 | 0 | 0 | 0 | 0 | drug sensitivity score (HCC1599): 0; drug sensitivity score (MDA-MB-453 [13]): 0; drug sensitivity score (HCC1143): 0; drug sensitivity score (BT-549): 0; drug sensitivity score (CAL-51 [14]): 0; drug sensitivity score (MDA-MB-231): 0; drug sensitivity score (BT-474): 0; drug sensitivity score (MFM-223): 0
9 | O=C(/C=C/c1cccnc1)NCCCCC1CCN(C(=O)c2ccccc2)CC1 [Daporinad] | – | – | – | – | – | – | – | – | – | 22 | 20.9 | 21.4 | 30 | 23.2 | 18 | 25.2 | 26.8 | 0 | 6.26 | 8.81 | drug sensitivity score (HCC1599): 29.4; drug sensitivity score (MDA-MB-453 [13]): 26.8; drug sensitivity score (HCC1143): 22.2; drug sensitivity score (BT-549): 0; drug sensitivity score (CAL-51 [14]): 0; drug sensitivity score (MDA-MB-231): 14.8; drug sensitivity score (BT-474): 13.4; drug sensitivity score (MFM-223): 31.4
10 | O=C(/C=C/c1cccnc1)NCCCCC1CCN(C(=O)c2ccccc2)CC1 [FK-866] | 93.3% | 64.2% | 42.5% | 54.6% | 48.9% | 6.4% | 53.7% | 21.1% | 44.3% | – | – | – | – | – | – | – | – | – | – | – | –

From the supplement of paper PMC4862054
